Assay results published in ChEMBL document CHEMBL3885881, “DrugMatrix”.

Organism: Rattus norvegicus
Assay: DrugMatrix - Regimen: Daily Repeat
Format: toxicity, organism-based, Sprague-Dawley
Set-up: regimen Daily Repeat, gender Male, age 6-8 weeks
Conditions: in vivo, po, 72 h, route oral GAVAGE, time 3 day, vehicle .5 % CMC; for ABSOLUTE BASOPHIL / ABSOLUTE EOSINOPHIL / ABSOLUTE LYMPHOCYTE / ABSOLUTE MONOCYTE / ABSOLUTE SEGMENTED NEUTROPHIL / BASOPHIL / EOSINOPHIL / ERYTHROCYTE COUNT / HEMATOCRIT / HEMOGLOBIN / LEUKOCYTE COUNT / LYMPHOCYTE / MEAN CORPUSCULAR HEMOGLOBIN / MEAN CORPUSCULAR HEMOGLOBIN CONCENTRATION / MONOCYTE / NUCLEATED RED BLOOD CELLS / PLATELET COUNT / NEUTROPHIL: tissue Blood
[1] = 0 mg/kg, tissue Plasma, dose level Control
[2] = 33 mg/kg, tissue Plasma, dose level High
[3] = […], dose 3.3 mg/Kg, dose level Low
[4] = […], tissue Plasma, dose 3.3 mg/Kg, dose level Low

AURANOFIN
ABSOLUTE BASOPHIL (0 mg/kg, dose level Control): 0 CELLS/uL
ABSOLUTE EOSINOPHIL (0 mg/kg, dose level Control): 8.83 CELLS/uL
ABSOLUTE LYMPHOCYTE (0 mg/kg, dose level Control): 7222.33 CELLS/uL
ABSOLUTE MONOCYTE (0 mg/kg, dose level Control): 0 CELLS/uL
ABSOLUTE SEGMENTED NEUTROPHIL (0 mg/kg, dose level Control): 752.17 CELLS/uL
BASOPHIL (0 mg/kg, dose level Control): 0%
EOSINOPHIL (0 mg/kg, dose level Control): 0.17%
ERYTHROCYTE COUNT (0 mg/kg, dose level Control): 5.22 x10E6/uL
HEMATOCRIT (0 mg/kg, dose level Control): 32.6%
HEMOGLOBIN (0 mg/kg, dose level Control): 12.43 G/DL
LEUKOCYTE COUNT (0 mg/kg, dose level Control): 7.98 x10E3/uL
LYMPHOCYTE (0 mg/kg, dose level Control): 91.17%
MEAN CORPUSCULAR HEMOGLOBIN (0 mg/kg, dose level Control): 23.87 pg
MEAN CORPUSCULAR HEMOGLOBIN CONCENTRATION (0 mg/kg, dose level Control): 38.18 G/DL
MONOCYTE (0 mg/kg, dose level Control): 0%
NUCLEATED RED BLOOD CELLS (0 mg/kg, dose level Control): 0 /100WBC
PLATELET COUNT (0 mg/kg, dose level Control): 1082.33 x10E3/uL
ALANINE AMINOTRANSFERASE [1]: 42.17 u/L
ALKALINE PHOSPHATASE [1]: 451.17 u/L
ASPARTATE AMINOTRANSFERASE [1]: 76.17 u/L
BLOOD UREA NITROGEN [1]: 13.33 mg/dL
CARBON DIOXIDE [1]: 31.67 mmol/L
CHLORIDE [1]: 96.5 MEQ/L
CHOLESTEROL [1]: 78 mg/dL
CREATINE PHOSPHOKINASE [1]: 216.5 u/L
CREATININE [1]: 0.22 mg/dL
GLUCOSE [1]: 137 mg/dL
LACTATE DEHYDROGENASE [1]: 138.5 u/L
PHOSPHORUS [1]: 12.68 mg/dL
POTASSIUM [1]: 6.23 MEQ/L
TOTAL BILIRUBIN [1]: 0.15 mg/dL
TOTAL PROTEIN [1]: 6.33 G/DL
URIC ACID [1]: 1.1 mg/dL
ABSOLUTE BASOPHIL (33 mg/kg, dose level High): 0 CELLS/uL
ABSOLUTE EOSINOPHIL (33 mg/kg, dose level High): 19 CELLS/uL
ABSOLUTE LYMPHOCYTE (33 mg/kg, dose level High): 6925.33 CELLS/uL
ABSOLUTE MONOCYTE (33 mg/kg, dose level High): 0 CELLS/uL
ABSOLUTE SEGMENTED NEUTROPHIL (33 mg/kg, dose level High): 722.33 CELLS/uL
BASOPHIL (33 mg/kg, dose level High): 0%
EOSINOPHIL (33 mg/kg, dose level High): 0.33%
ERYTHROCYTE COUNT (33 mg/kg, dose level High): 5.07 x10E6/uL
HEMATOCRIT (33 mg/kg, dose level High): 31.53%
HEMOGLOBIN (33 mg/kg, dose level High): 12.07 G/DL
LEUKOCYTE COUNT (33 mg/kg, dose level High): 7.67 x10E3/uL
LYMPHOCYTE (33 mg/kg, dose level High): 90.67%
MEAN CORPUSCULAR HEMOGLOBIN (33 mg/kg, dose level High): 23.77 pg
MEAN CORPUSCULAR HEMOGLOBIN CONCENTRATION (33 mg/kg, dose level High): 38.27 G/DL
MONOCYTE (33 mg/kg, dose level High): 0%
NEUTROPHIL (33 mg/kg, dose level High): 9%
NUCLEATED RED BLOOD CELLS (33 mg/kg, dose level High): 0 /100WBC
PLATELET COUNT (33 mg/kg, dose level High): 1030 x10E3/uL
ALANINE AMINOTRANSFERASE [2]: 55.67 u/L
ALBUMIN [2]: 3.8 G/DL
ALKALINE PHOSPHATASE [2]: 342.67 u/L
ASPARTATE AMINOTRANSFERASE [2]: 80.33 u/L
BLOOD UREA NITROGEN [2]: 13.33 mg/dL
CARBON DIOXIDE [2]: 31.67 mmol/L
CHOLESTEROL [2]: 93.33 mg/dL
CREATINE PHOSPHOKINASE [2]: 251.67 u/L
CREATININE [2]: 0.18 mg/dL
GLUCOSE [2]: 139 mg/dL
LACTATE DEHYDROGENASE [2]: 122 u/L
SODIUM [2]: 153.7 MEQ/L
TOTAL BILIRUBIN [2]: 0.2 mg/dL
TOTAL PROTEIN [2]: 5.87 G/DL
URIC ACID [2]: 1.13 mg/dL
ABSOLUTE BASOPHIL [3]: 0 CELLS/uL
ABSOLUTE EOSINOPHIL [3]: 46.33 CELLS/uL
ABSOLUTE LYMPHOCYTE [3]: 6434 CELLS/uL
ABSOLUTE MONOCYTE [3]: 30 CELLS/uL
ABSOLUTE SEGMENTED NEUTROPHIL [3]: 1123 CELLS/uL
BASOPHIL [3]: 0%
EOSINOPHIL [3]: 0.67%
ERYTHROCYTE COUNT [3]: 5.02 x10E6/uL
HEMATOCRIT [3]: 31.27%
HEMOGLOBIN [3]: 11.83 G/DL
LEUKOCYTE COUNT [3]: 7.63 x10E3/uL
LYMPHOCYTE [3]: 84.33%
MEAN CORPUSCULAR HEMOGLOBIN [3]: 23.57 pg
MEAN CORPUSCULAR HEMOGLOBIN CONCENTRATION [3]: 37.83 G/DL
MONOCYTE [3]: 0.33%
NEUTROPHIL [3]: 14.67%
NUCLEATED RED BLOOD CELLS [3]: 0.33 /100WBC
PLATELET COUNT [3]: 1052.33 x10E3/uL
ALANINE AMINOTRANSFERASE [4]: 42.33 u/L
ALBUMIN [4]: 4.1 G/DL
ALKALINE PHOSPHATASE [4]: 371 u/L
ASPARTATE AMINOTRANSFERASE [4]: 73 u/L
BLOOD UREA NITROGEN [4]: 13 mg/dL
CARBON DIOXIDE [4]: 33 mmol/L
CHLORIDE [4]: 97 MEQ/L
CHOLESTEROL [4]: 76.67 mg/dL
CREATINE PHOSPHOKINASE [4]: 140 u/L
CREATININE [4]: 0.18 mg/dL
GLUCOSE [4]: 143 mg/dL
LACTATE DEHYDROGENASE [4]: 96 u/L
LIPASE [4]: 8.33 u/L
POTASSIUM [4]: 6.12 MEQ/L
SODIUM [4]: 145.6 MEQ/L
TOTAL BILIRUBIN [4]: 0.17 mg/dL
TOTAL PROTEIN [4]: 6.17 G/DL
URIC ACID [4]: 1 mg/dL
